Data taken from patent publication US8492417B2, “Topical use of thiazolidine derivatives against consequences of oxidative stress of skin” (Exsymol S.A.M., priority 2007, dated 2013).
Like-named read-outs stand apart in the source and are kept apart here. Each block holds one compound with its values, some of them ahead of it.

Assays:
[1] = "in tubo" taurine formation in contact with H2O2 solution (HPLC); type: physicochemical; details: 4 equivalents H2O2, pH 7.4, 37° C.
[2] = tested on: V79 fibroblastic line; test: Neutralization of 4-hydroxynonenal cytotoxicity, MTT cellular viability; type: cell-based, hamster; details: 4-HNE 6 ppm
Description: The experimental study has been carried out on a fibroblastic line of hamster called V79, maintained in humid atmosphere at 37° C. and 5% CO2, then seeded in 96 wells plates at the rate of 0.5.10^4 cells per well.
The cellular viability of fibroblasts is measured by the incorporation method to the bromide of 3-(4,5-dimethylthiazol-2-yl)-2,5-diphenyltetrazolium (or MTT). The results, taking the middle values obtained from three independent experiments, are presented below in table 3, in comparison with those for the N-acetyl-cysteine at 2 mM chosen as a positive reference molecule (total restoration of cellular viability in relation to a control and the non stressed cells with 4-HNE).

[3] = Scavenging speed constant of the hydroxyl radical, Ks (OH°); parameters: unit not given here; details: pH 7,4, 37° C., one hour incubation; middle values of five experiments
Description: The method, described by Rehman A. and coll.
Experimentally, the tested substance is dissolved in a buffered medium of pH 7,4 to which is added a generating medium of OH^o. Following one hour of incubation at 37° C., the reaction is stopped with the help of trichloroacetic acid. […]

[4] = physchem
[5] = "Global" antioxidant power: desoxyribose protection with oxidase/hypoxanthine xanthine pair; details: pH 7.5
Description: The production system of ROS, described by Nowak D. and coll. […] This is characterized by the sum of the effects against the superoxide anion O2^o−, hydrogen peroxide H2O2, and the hydroxyl radical OH^o, and is expressed by following the percentage of protection of a “detecting” molecule, desoxyribose.
Experimentally, the tested substance is dissolved in a buffered medium at pH 7.5, supplemented with NaCl, MgCl2 et CaCl2. After their incubation at 37° C. in the presence of the oxidase/hypoxanthine xanthine pair, EDTA and desoxyribose, the reaction is stopped with the help of trichloroacetic acid. After addition of thiobarbituric acid, an optic density measure at 532 nm is carried out, expressed later as percentage of desoxyribose protection (following comparison with a control).

[6] = tested on: V79 fibroblastic line; test: Anti-clastogen effect: micronucleus cells under genotoxic 4-HNE stress; type: cell-based, hamster; details: stress-HNE 1 ppm
Excerpt: The study has been carried out according to identical experimental conditions (sowing) to those presented in the here-above test 3, with cell exposure to a state of “4-HNE stress ” at […] genotoxic concentration, as described (Eckel P. M., Molecular Aspects of Medicine (2003), vol. 24, pp. 161-165) as generating cellular DNA breaks and micronucleus formation (clastogen effect).
The micronucleus cell number is counted following reading of the slides with epifluorescence microscope, on 2000 cells and after marking with orange acridine (DNA colorant).
Results, taking the middle values obtained from two independent experiments, are presented below in table 4, in comparison with those for N-acetyl-cysteine at 2 mM chosen as a positive reference molecule (number of micronucleus cells close to the non-exposed control).

[7] = tested on: V79 cells; test: Protection against "UVA-induced" stress: intracellular ROS by CMDCF probe; type: cell-based, hamster; details: irradiated cells, UVA 5 J. cm−2
Description: The study has been carried out according to identical experimental conditions (sowing) to those presented in the here-above tests 3 and 4, but with an exposure of V79 cells to ultraviolet radiation (λ315-400 nm) with the moderate dose of 5 J. cm^−2 (“UVA-induced” stress).
The formation of intracellular ROS is measured with the permeant fluorescent probe “CMDCF” derived from fluorescein (10 μm, 15 minutes incubation).
The percentages of CMDCF cells said “positive” (cells with intracellular formation of ROS are presented below in table 6, in comparison with unirradiated cells, then with cells treated with N-acetyl-cysteine (reference molecule) and different concentrations of 2-oxo-1,3-thiazolidine compound.

[8] = literature value (Cabelli 1983); cited from earlier work

- taurine (% formation) ([1]; 3 h): 38%
- taurine (% formation) ([1]; 7 h): 56%
- taurine (% formation) ([1]; 24 h): 82%
- taurine (% formation) ([1]; 48 h): 93%
- logP [4]: -0.27
Structure (SMILES): O=C1NCCS1 [2-oxo-1,3-thiazolidine]
- viability at 100 µM ([2]; compound 0.1 mM): 40%
- viability at 1000 µM ([2]; compound 1 mM): 58%
- viability at 2500 µM ([2]; compound 2.5 mM): 100%
- Ks (OH°) [3]: 13.52
- % protection ([5]; compound 10 mM): 19%
- % protection ([5]; compound 20 mM): 25%
- Cell number with micronucleus/2000 cells ([6]; compound 5 mM): 21
- % of CMDCF positive cells ([7]; compound 0.625 mM): 24.7%
- % of CMDCF positive cells ([7]; compound 1.25 mM): 15.3%
- % of CMDCF positive cells ([7]; compound 2.5 mM): 12%
- % of CMDCF positive cells ([7]; compound 5 mM): 7.3%

- taurine (% formation) ([1]; 3 h): 30%
- taurine (% formation) ([1]; 7 h): 50%
- taurine (% formation) ([1]; 24 h): 77%
- taurine (% formation) ([1]; 48 h): 89%
Structure (SMILES): S=C1NCCS1 [2-thiono-1,3-thiazolidine]

Structure (SMILES): CC(=O)N[C@@H](CS)C(=O)O [N-acetyl-cysteine, reference compound]
- viability at 2000 µM ([2]; compound 2 mM): 126%
- Cell number with micronucleus/2000 cells ([6]; compound 2 mM): 27
- % of CMDCF positive cells ([7]; compound 5 mM): 4%

Structure (SMILES): O=C1O[C@H]([C@@H](O)CO)C(O)=C1O [ascorbic acid]
- Ks (OH°) [8]: 10.1 Gigas.M-1.s-1
